Consider 40 molecules from US10682359B2, “Inhibitors of glucose kinases, along with methods of their formation and use” (University of South Carolina, priority 2017, dated 2020).

The test system of assay [1] is T. cruzi infective form (amastigotes and trypomastigotes) (Tulahuen strain) in NIH-3T3 fibroblasts. Briefly: T. cruzi viability assay in NIH-3T3 fibroblasts. Particulars: for EC50 / viability at 80 µM: Trypanosoma cruzi, TULAHUEN, NIH3T3; for Trypanocidal activity class: class by % viability at 80 μM; for in vitro T. cruzi EC50 compared with benznidazole: infective form co-cultured in NIH-3T3 fibroblasts.

In assay [2] the target is T1, Trypanosoma cruzi glucokinase (TcGlcK) (Trypanosoma cruzi, UniProt Q4E4E1).
T1 construct: made in house
T1 sequence (Q4E4E1 1-376): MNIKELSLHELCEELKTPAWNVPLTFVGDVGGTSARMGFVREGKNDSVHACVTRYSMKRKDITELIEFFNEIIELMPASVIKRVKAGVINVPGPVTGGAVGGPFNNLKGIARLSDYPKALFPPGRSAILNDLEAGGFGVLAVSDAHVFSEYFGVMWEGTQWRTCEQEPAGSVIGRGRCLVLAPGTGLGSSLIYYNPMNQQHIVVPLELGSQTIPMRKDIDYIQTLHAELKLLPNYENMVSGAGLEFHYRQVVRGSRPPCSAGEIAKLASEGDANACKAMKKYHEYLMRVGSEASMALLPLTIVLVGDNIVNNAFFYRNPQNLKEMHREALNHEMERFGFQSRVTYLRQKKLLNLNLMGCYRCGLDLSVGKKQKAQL
Briefly: TcGlcK-HsΔG6PDH-diaphorase coupled assay, IC50 determination. It is filed as biochemical. The protocol: The TcGlcK assay was performed through its linking with the HsΔG6PDH-diaphorase enzyme-coupled assay system as schematically illustrated in FIG. 1. All of the compounds were tested in quadruplicate using the JANUS-MDT liquid handler equipped with a 384-tip head that was used to transfer 22 μL of a reagent mix [130 U/mL HsΔG6PDH, 100 mM NADP+, 1 kU/mL diaphorase, 10 mM resazurin, and 19 μM TcGlcK in a reaction buffer (see below)], 0.5 μL of 1 mM compounds in 100% DMSO (from the daughter plate, see above), and 2.5 μL of a substrate mix [4 mM D-glucose and 6 mM ATP in a reaction buffer] to a 384-well plate (total volume per well was 25 μL). The reaction buffer was 0.1 M triethanolamine (pH 8.5), 8.0 mM MgCl2, and 0.01% (v/v) Triton X-100. The final assay concentrations (FACs) were 0.5 U/mL HsΔG6PDH, 100 μM NADP+, 1 U/mL diaphorase, 20 μM resazurin, 2.5 nM TcGlcK, 20 μM compounds (from the daughter plate, see above), 0.4 mM D-glucose, 0.6 mM ATP, 0.1 M triethanolamine (pH 8.5), 8 mM MgCl2, and 0.01% (v/v) Triton X-100. […] The assay was carried out using 384-well, black, v-bottom microplates (Greiner Bio-One) with a final volume of 25 μL per well. Pipetting steps were performed with a liquid handler having a 384-tip head, JANUS-MDT from Perkin Elmer (Waltham, Mass.). Compounds that gave rise to TcGlcK enzyme activity in the presence of 20 μM compound (EA20) that results in less than 65%) were categorized as unconfirmed hits to proceed as candidates. The methodology is schematically illustrated in FIG. 2.
Determination of the IC50 values was performed by the TcGlcK—HsΔG6PDH—diaphorase coupled assay, in which reaction velocities were obtained at various concentrations of inhibitors. In 96-well plates, solutions of the inhibitors were prepared by serial dilution. Briefly, column 1 served as a control having an inhibitor concentration of zero; however, columns 2 through 12 on a given row had 11 different inhibitor concentrations from a serial dilution. Using the JANUS-MDT liquid handler with a 96-tip head, assay reactions were carried out in quadruplicate in a 384-well plate and the following components were transferred per well: 44 μL of a reagent mix [130 U/mL HsΔG6PDH, 100 mM NADP^+, 1 kU/mL diaphorase, 10 mM resazurin, and 19 μM TcGlcK in a reaction buffer (0.1 M triethanolamine (pH 8.5), 8.0 mM MgCl2, and 0.01% (v/v) Triton X-100)], 1 uL of 1 mM compound solutions in 100% DMSO, and 5 μL of a substrate mix [4 mM D-glucose and 6 mM ATP in the same reaction buffer]. The Envision microplate reader (PerkinElmer) was used to monitor the formation of resorufin in the fluorescence mode (λex=530 nm; λem=615 nm). Reaction velocities were measured and normalized by the controls. Values of IC50 were calculated using the GraphPad Prism 6.0 software from nonlinear regression of the data.

[3] abbreviates: TcGlcK - inhibitor IC50, enzymatic coupled assay, read-out: IC50.

Read-outs that look alike come from different tables or passages of the source.

For `COc1ccc(S(=O)(=O)Nc2cccc(Br)c2)c(Cl)c1Cl` [Compound 1a], in assay [1], the EC50 (in general, the midpoint of the concentration-response curve) is 13.3 ± 0.3 µM; the viability (usually the share of living cells, or the viability signal relative to a control) at 80 µM worked out at 0%; the Trypanocidal activity class result is given as “active”. Besides, the IC50 (as a rule, the point on the concentration scale where inhibition reaches its midpoint) in assay [2] (setting [3]) stood at 7.2 µM.

For `COc1ccc(S(=O)(=O)Nc2cccc(SC)c2)cc1F` [Compound 1b], the viability at 80 µM in assay [1] is 0%. For `COc1cc(S(=O)(=O)Nc2cccc(Cl)c2C)c(C)cc1C` [Compound 1c], in assay [1], the viability at 80 µM turned out to be 0%. Same read-out and setting: next, `COc1ccc(NS(=O)(=O)c2ccc(Cl)c(C)c2Cl)cc1` [Compound 1d]: 0%; `COc1ccc(S(=O)(=O)Nc2ccc(F)c(F)c2)cc1I` [Compound 1e]: 0%; `COc1ccc(S(=O)(=O)Nc2ccc3ccccc3c2)cc1Cl` [Compound 1f]: 0%. `COc1ccc(S(=O)(=O)Nc2ccc(Br)cc2F)cc1Cl` [Compound 1g] yielded a viability at 80 µM in assay [1] of 0%.

Molecule `CCOc1cc(S(=O)(=O)Nc2ccc(Cl)cc2)ccc1F` [Compound 1h] registered a viability at 80 µM in assay [1] of 0%. The same measure, in the same setting: with `CCOc1ccc(S(=O)(=O)Nc2c(F)cccc2F)cc1Cl` [Compound 1i] the figure was 4.9 ± 4.7%; with `CCOc1ccc(S(=O)(=O)Nc2cccc(Cl)c2C)cc1C` [Compound 1j], 0%; with `COc1ccc(S(=O)(=O)Nc2cc(Cl)ccc2Cl)c(C)c1C` [Compound 1k], 0%.

The molecule `COc1ccc(S(=O)(=O)Nc2ccccc2)cc1F` [Compound 1l] returned a viability at 80 µM in assay [1] of 34.6 ± 4.3%. Turning to `O=S(=O)(Nc1ccc(O)cc1)c1cc(Cl)ccc1Cl` [Compound 1m], the viability at 80 µM in assay [1] is 0.6 ± 2.9%. With `COc1ccc(F)cc1S(=O)(=O)Nc1ccc(Cl)cc1` [Compound 1n], the viability at 80 µM in assay [1] worked out at 2.4 ± 7.4%. With `O=C1C(=Cc2ccco2)C(=O)N(c2ccccc2)C(=O)N1c1ccccc1` [Compound 2a], the viability at 80 µM in assay [1] worked out at 66.5 ± 22.3%. The same molecule had an IC50 in assay [2] of 0.6 µM. `Cc1cc(N2CCOCC2)ccc1/C=C1/C(=O)NC(=O)N(c2ccc3c(c2)OCO3)C1=O` [Compound 2b] had a viability at 80 µM in assay [1] of 57 ± 2.8%. In assay [2], this molecule yielded an IC50 of 1.1 µM. In assay [1], `CN1C(=O)C(=Cc2ccc(N(C)C)cc2)C(=O)N(C)C1=O` [Compound 2c] showed a viability at 80 µM of 79 ± 4%. Moreover, half-maximal inhibition in assay [2] (IC50) was put at 5.5 µM. On to `COc1ccc(Br)cc1/C=C1/C(=O)NC(=O)N(CCC2=CCCCC2)C1=O` [Compound 2d], for which the viability at 80 µM in assay [1] is 88.7 ± 15.1%. Moreover, the IC50 in assay [2] was found to be 13.7 µM. For `O=C1NC(=O)C(=Cc2ccc(N3CCOCC3)cc2)C(=O)N1` [Compound 2e], in that order: 88 ± 9.4% and 1.7 µM. For the molecule `O=C1NC(=O)C(=Cc2ccc(Br)s2)C(=O)N1` [Compound 2f], the viability at 80 µM in assay [1] is 74.2 ± 5.3%. In assay [2], the half-maximal inhibitory concentration (IC50) turned out to be 2.4 µM. For the molecule `O=C1NC(=O)C(=Cc2ccc(O)c(O)c2)C(=O)N1` [Compound 2g], the viability at 80 µM in assay [1] was determined as 62.8 ± 11.6%. The same molecule yielded an IC50 in assay [2] of 4.2 µM. Consider `O=C1NC(=O)C(=Cc2ccc3c(c2)OCO3)C(=O)N1` [Compound 2h], for which, in assay [1], the viability at 80 µM came out at 81.2 ± 13.7%. The molecule further yielded an IC50 in assay [2] of 8.7 µM. `CCOc1ccc([C@@H]2Oc3c(Cl)cc(Cl)cc3C=C2[N+](=O)[O-])cc1OCC` [Compound 4a]: in assay [1], the EC50 came to 2.98 ± 0.227 µM, the viability at 80 µM turned out to be 0%, the Trypanocidal activity class result is recorded as “active” and the “in vitro T. cruzi EC50 compared with benznidazole” value is “very similar in vitro T. cruzi EC50 values to that of benznidazole”. Besides, the IC50 in assay [2] (setting [3]) worked out at 4.8 µM. For `CCOc1ccc([C@@H]2Oc3ccc(Br)cc3C=C2[N+](=O)[O-])cc1OC` [Compound 4b], in assay [1], the EC50 amounted to 2.17 ± 0.045 µM, the viability at 80 µM came to 0%, the Trypanocidal activity class result is given as “active” and the “in vitro T. cruzi EC50 compared with benznidazole” value is reported as “very similar in vitro T. cruzi EC50 values to that of benznidazole”. In addition, the IC50 in assay [2] (setting [3]) was 6.5 µM. The molecule `COc1ccc([C@@H]2Oc3ccccc3C=C2[N+](=O)[O-])cc1OC` [Compound 4c] displayed a viability at 80 µM in assay [1] of 0%. Also, the IC50 in assay [2] (setting [3]) was found to be 53.2 µM. For `CCOc1ccc([C@@H]2Oc3ccccc3C=C2[N+](=O)[O-])cc1OCC` [Compound 4d], in that order: 0% and 69.1 µM.

In the case of `O=[N+]([O-])C1=Cc2c(ccc3ccccc23)O[C@H]1c1ccc2c(c1)OCO2` [Compound 4e], the viability at 80 µM in assay [1] is 0%. In turn, `COc1ccc(Br)cc1[C@H]1C(C#N)=C(N)Oc2c1c(C)nn2-c1ccccc1` [Compound 5a] displayed a viability at 80 µM in assay [1] of 0%. Further, the IC50 in assay [2] (setting [3]) stood at 18.8 µM. Take `Cc1nn(-c2ccccc2)c2c1[C@@H](c1ccc(F)cc1)C(C#N)=C(N)O2` [Compound 5b]: the viability at 80 µM in assay [1] came to 87.1 ± 3.3%. Further, the IC50 in assay [2] (setting [3]) amounted to 17.1 µM.

Regarding `Cc1ccc(-n2nc(C)c3c2OC(N)=C(C#N)[C@H]3c2ccoc2)cc1` [Compound 5c], in assay [1], the viability at 80 µM turned out to be 80.6 ± 3.9%. Same read-out and setting: with `Cc1nn(-c2cccc(Cl)c2)c2c1[C@@H](c1cc([N+](=O)[O-])ccc1Cl)C(C#N)=C(N)O2` [Compound 5d] the figure was 0%. Take `Cc1cc2c(c(O)c1-c1c(C)cc3c(c1O)C(=CNc1ccc(S(=O)(=O)NC(=N)N)cc1)C(=O)C(O)=C3C(C)C)C(=CNc1ccc(S(=O)(=O)NC(=N)N)cc1)C(=O)C(O)=C2C(C)C` [Compound 6a]: in assay [1], the EC50 is 8.62 ± 0.493 µM, the viability at 80 µM came to 0% and the Trypanocidal activity class entry was “active”. The IC50 in assay [2] (setting [3]) was 13.2 µM. `Cc1cc2c(c(O)c1-c1c(C)cc3c(c1O)/C(=C/Nc1cccc4c(N)cccc14)C(=O)C(O)=C3C(C)C)/C(=C/Nc1cccc3c(N)cccc13)C(=O)C(O)=C2C(C)C` [Compound 6b]: the viability at 80 µM in assay [1] was determined as 1.7 ± 2.7%. In addition, the 50% inhibitory concentration (IC50) in assay [2] (setting [3]) was found to be 16.5 µM. In turn, `Cc1cc2c(c(O)c1-c1c(C)cc3c(c1O)/C(=C/Nc1c(O)cc(S(=O)(=O)O)c4ccccc14)C(=O)C(O)=C3C(C)C)/C(=C/Nc1c(O)ccc3c(S(=O)(=O)O)cccc13)C(=O)C(O)=C2C(C)C` [Compound 6c] returned a viability at 80 µM in assay [1] of 20.4 ± 10.3%. The IC50 in assay [2] (setting [3]) was found to be 30.2 µM.

For the molecule `Cc1cc2c(c(O)c1-c1c(C)cc3c(c1O)/C(=C/Nc1ccc(Cc4ccc(N)cc4)cc1)C(=O)C(O)=C3C(C)C)/C(=C/Nc1ccc(Cc3ccc(N)cc3)cc1)C(=O)C(O)=C2C(C)C` [Compound 6d], the viability at 80 µM in assay [1] was determined as 63.3 ± 0.4%. For the same molecule, the IC50 in assay [2] (setting [3]) turned out to be 61.6 µM. Consider `c1ccc([C@@H]2CCCN2)nc1` [Compound 7], for which the viability at 80 µM in assay [1] came to 84.3 ± 0.5%. Same read-out and setting: next, `O=C(O)C1Nc2c(I)cccc2C2C=CCC12` (stereo not drawn) [Compound 8]: 44.3 ± 5.1%; `Nc1c(C(=O)c2cccc([N+](=O)O)c2)sc2nc(-c3cccnc3)ccc12` [Compound 9]: 52.7 ± 7.9%. Still for that read-out and setting: with `COc1ccc(C(=O)Nc2sc3c(c2C(N)=O)CCCCC3)cc1OC` [Compound 10] the figure was 50.5 ± 3.4%; with `N#Cc1ccc(-c2cccnc2)nc1SCC(=O)O` [Compound 11], 86.5 ± 0.9%.
